Results: patent publication US20060069132A1, “Azolecarboxamide herbicides” (priority 2004, published 2006)

Columns and labels:
[1] = tested on: barnyardgrass; assay: Test A pre-/postemergence herbicide test; assay type: in vivo, Echinochloa crus-galli; settings: for Plant response rating, Barnyardgrass: Postemergence; for Barnyardgrass plant response rating: Preemergence
Summary of the method: (§1)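 Plants are held in greenhouse about ten days after treatment, then compared with untreated controls and scored 0 (no effect) to 100 (complete control). Preemergence dosing is a directed soil spray on sown sandy loam; postemergence dosing is spray to runoff at 2–10 cm height.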

[2] = tested on: giant foxtail; assay: Test A pre-/postemergence herbicide test; assay type: in vivo, Setaria faberi; settings: for Plant response rating, Foxtail, Giant: Postemergence; for Foxtail, Giant plant response rating: Preemergence
Summary of the method: as §1

[3] = tested on: wild oat; assay: Test B postemergence herbicide test; assay type: in vivo, Avena fatua; settings: scale 0 (no effect) to 100 (complete control)
Summary of the method: (§2)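 Formulated test chemicals went onto postemergence plants measuring 2 to 18 cm, at one to four leaves. For the paddy assay, species had reached two leaves. Scoring took place 13–15 days later by eye, relative to untreated plants, using 0 for no effect up to 100 for full control.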

[4] = tested on: cocklebur; assay: Test B pre-/postemergence herbicide test; assay type: in vivo, Xanthium strumarium
Summary of the method: (§3)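 Species tested were Echinochloa crus-galli, Ipomoea coccinea, Xanthium strumarium and Oryza sativa, treated both before emergence and at the 1- to 4-leaf stage; rice and barnyardgrass were also tested under flooding at 2 leaves. Greenhouse incubation lasted 13–15 days before visual 0–100 scoring.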

[5] = tested on: morningglory; assay: Test A pre-/postemergence herbicide test; assay type: in vivo, Ipomoea spp.; settings: for Plant response rating, Morningglory: Postemergence; for Morningglory plant response rating: Preemergence
Summary of the method: as §1

[6] = tested on: Surinam grass; assay: Test B pre-/postemergence herbicide test; assay type: in vivo, Urochloa decumbens
Summary of the method: (§4)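 Seeds were planted and treated preemergence with compounds formulated in a non-phytotoxic solvent mixture containing surfactant, while plants at the 1- to 4-leaf stage (2 to 18 cm) received postemergence sprays. Flooded paddy plants were grown to the 2-leaf stage. After 13 to 15 days in a greenhouse, injury was visually rated 0–100 against untreated controls.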

[7] = tested on: large crabgrass; assay: Test A pre-/postemergence herbicide test; assay type: in vivo, Digitaria sanguinalis; settings: for Plant response rating, Crabgrass, Large: Postemergence; for Crabgrass, Large plant response rating: Preemergence
Summary of the method: as §1

[8] = tested on: wheat; assay: Test B postemergence herbicide test; assay type: in vivo, Triticum aestivum; set-up: key to Wheat plant response rating: 0 = no effect, 100 = complete control; settings: scale 0 (no effect) to 100 (complete control)
Summary of the method: as §2

[9] = tested on: corn; assay: Test B pre-/postemergence herbicide test; assay type: in vivo, Zea mays
Summary of the method: as §4

[10] = tested on: rice; assay: Test B pre-/postemergence herbicide test; assay type: in vivo, Oryza sativa; settings: preemergence, 125 g ai/ha; 0 to 100 scale, 0 is no effect, 100 is complete control
Summary of the method: as §4

[11] = tested on: rice; assay: Test B flooded paddy test; assay type: in vivo, Oryza sativa; settings: 1000 g ai/ha, visual rating, scale 0 to 100 (0 no effect, 100 complete control), 13 to 15 days
Summary of the method: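 Visual ratings, 0 (no effect) to 100 (complete control), made versus controls after 13–15 d greenhouse. Paddy plants treated at 2-leaf stage; postemergence plants at 1- to 4-leaf stage, 2–18 cm tall.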

[12] = tested on: morningglory; assay: Test B pre-/postemergence herbicide test; assay type: in vivo, Ipomoea coccinea
Summary of the method: as §3

[13] = tested on: giant foxtail; assay: Test B pre-/postemergence herbicide test; assay type: in vivo, Setaria faberi
Summary of the method: as §4

[14] = tested on: pigweed; assay: Test B pre-/postemergence herbicide test; assay type: in vivo, Amaranthus retroflexus
Summary of the method: as §4

[15] = tested on: barnyardgrass; assay: Test B pre-/postemergence herbicide test; assay type: in vivo, Echinochloa crus-galli
Summary of the method: as §3

[16] = tested on: ducksalad; assay: Test B flooded paddy test; assay type: in vivo, Heteranthera limosa; settings: 1000 g ai/ha, visual rating, scale 0 to 100 (0 no effect, 100 complete control), 13 to 15 days
Summary of the method: (§5)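 Plants grow to 1- to 4-leaf stage (2–18 cm) for postemergence spraying, or to 2-leaf stage for the paddy test. Formulated compound is applied. Greenhouse holding lasts 13–15 days. Response is scored visually relative to controls, 0 no effect to 100 complete control; a dash means no result.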

[17] = tested on: blackgrass; assay: Test B postemergence herbicide test; assay type: in vivo, Alopecurus myosuroides; settings: scale 0 (no effect) to 100 (complete control)
Summary of the method: as §5

[18] = tested on: large crabgrass; assay: Test B pre-/postemergence herbicide test; assay type: in vivo, Digitaria sanguinalis
Summary of the method: as §4

[19] = tested on: small flower umbrella sedge; assay: Test B flooded paddy test; assay type: in vivo, Cyperus difformis; settings: 1000 g ai/ha, visual rating, scale 0 to 100 (0 no effect, 100 complete control), 13 to 15 days
Summary of the method: as §5

[20] = tested on: redroot pigweed; assay: Test A pre-/postemergence herbicide test; assay type: in vivo, Amaranthus retroflexus; settings: for Plant response rating, Pigweed: Postemergence; for Pigweed plant response rating: Preemergence
Summary of the method: as §1

[21] = tested on: velvetleaf; assay: Test A pre-/postemergence herbicide test; assay type: in vivo, Abutilon theophrasti; settings: for Velvetleaf plant response rating: Preemergence, visual rating, 0 to 100 scale (0 no effect, 100 complete control)
Summary of the method: as §1

[22] = tested on: barnyardgrass; assay: Test B flooded paddy test; assay type: in vivo, Echinochloa crus-galli; settings: 1000 g ai/ha, visual rating, scale 0 to 100 (0 no effect, 100 complete control), 13 to 15 days
Summary of the method: as §5

[23] = tested on: velvetleaf; assay: Test B pre-/postemergence herbicide test; assay type: in vivo, Abutilon theophrasti
Summary of the method: as §4

[24] = tested on: lambsquarters; assay: Test B pre-/postemergence herbicide test; assay type: in vivo, Chenopodium album
Summary of the method: as §4

[25] = 500 g ai/ha, 0 to 100 scale, 0 no effect, 100 complete control
[26] = 2000 g ai/ha, 0 to 100 scale, 0 no effect, 100 complete control
[27] = 500 g ai/ha, visual rating, 0 to 100 scale (0 no effect, 100 complete control)
[28] = Postemergence, 500 g ai/ha, visual rating after 13 to 15 days
[29] = postemergence, 125 g ai/ha, visual rating
[30] = Postemergence, 500 g ai/ha, visual rating after 13 to 15 days, scale 0 (no effect) to 100 (complete control)
[31] = Preemergence, 500 g ai/ha, scale 0 to 100
[32] = postemergence, 125 g ai/ha, visual rating, scale 0 (no effect) to 100 (complete control)
[33] = preemergence, 125 g ai/ha, 0 to 100 scale, 0 is no effect, 100 is complete control

## CCn1nc(C(C)(C)C)cc1C(=O)Nc1cccc(C(=O)OCC(F)(F)F)c1 [Compound 83]
[1]; [25]
  Plant response rating, Barnyardgrass: 5
[1]; [26]
  Plant response rating, Barnyardgrass: 20
  Barnyardgrass plant response rating: 0
[1]; [27]
  Barnyardgrass plant response rating: 0
[2]; [25]
  Plant response rating, Foxtail, Giant: 20
[2]; [26]
  Plant response rating, Foxtail, Giant: 20
  Foxtail, Giant plant response rating: 0
[2]; [27]
  Foxtail, Giant plant response rating: 0
[3]; [28]
  Plant response rating, Oat, Wild: 20
[3]; [29]
  Oat, Wild plant response rating: 10
[4]; [30]
  Plant response rating, Cocklebur: 20
[4]; [31]
  Cocklebur plant response rating: 0
[4]; [32]
  Cocklebur plant response rating: 0
[5]; [25]
  Plant response rating, Morningglory: 10
[5]; [26]
  Plant response rating, Morningglory: 10
  Morningglory plant response rating: 10
[5]; [27]
  Morningglory plant response rating: 30
[6]; [30]
  Plant response rating, Surinam Grass: 40
[6]; [32]
  Surinam Grass plant response rating: 20
[6]; [33]
  Plant response rating, Surinam Grass: 0
[7]; [25]
  Plant response rating, Crabgrass, Large: 30
[7]; [26]
  Plant response rating, Crabgrass, Large: 25
  Crabgrass, Large plant response rating: 0
[7]; [27]
  Crabgrass, Large plant response rating: 0
[8]; [28]
  Plant response rating, Wheat: 30
[8]; [29]
  Wheat plant response rating: 20
[9]; [30]
  Plant response rating, Corn: 30
[9]; [31]
  Corn plant response rating: 0
[9]; [32]
  Corn plant response rating: 10
[9]; [33]
  Plant response rating, Corn: 0
[10]
  Plant response rating, Rice: 0
[11]
  Rice plant response rating: 10
[12]; [30]
  Plant response rating, Morningglory: 30
[12]; [32]
  Morningglory plant response rating: 0
[12]; [33]
  Plant response rating, Morningglory: 0
[13]; [30]
  Plant response rating, Foxtail, Giant: 10
[13]; [31]
  Foxtail, Giant plant response rating: 0
[13]; [32]
  Foxtail, Giant plant response rating: 0
[13]; [33]
  Plant response rating, Foxtail, Giant: 0
[14]; [30]
  Plant response rating, Pigweed: 100
[14]; [32]
  Pigweed plant response rating: 70
[14]; [33]
  Plant response rating, Pigweed: 0
[15]; [30]
  Plant response rating, Barnyardgrass: 50
[15]; [31]
  Barnyardgrass plant response rating: 0
[15]; [32]
  Barnyardgrass plant response rating: 10
[15]; [33]
  Plant response rating, Barnyardgrass: 0
[16]
  Ducksalad plant response rating: 30
[17]; [28]
  Plant response rating, Blackgrass: 0
[17]; [29]
  Blackgrass plant response rating: 0
[18]; [30]
  Plant response rating, Crabgrass, Large: 30
[18]; [31]
  Crabgrass, Large plant response rating: 0
[18]; [32]
  Crabgrass, Large plant response rating: 30
[18]; [33]
  Plant response rating, Crabgrass, Large: 0
[19]
  Sedge, Umbrella plant response rating: 50
[20]; [25]
  Plant response rating, Pigweed: 45
[20]; [26]
  Plant response rating, Pigweed: 55
  Pigweed plant response rating: 0
[20]; [27]
  Pigweed plant response rating: 0
[21]; Postemergence, 2000 g ai/ha, 0 to 100 scale, 0 no effect, 100 complete control
  Plant response rating, Velvetleaf: 20
[21]; 500 g ai/ha
  Velvetleaf plant response rating: 0
[21]; 2000 g ai/ha
  Velvetleaf plant response rating: 0
[22]
  Barnyardgrass plant response rating: 10
[23]; [30]
  Plant response rating, Velvetleaf: 70
[23]; [32]
  Velvetleaf plant response rating: 50
[23]; [33]
  Plant response rating, Velvetleaf: 0
[24]; [30]
  Plant response rating, Lambsquarters: 60
[24]; [32]
  Lambsquarters plant response rating: 0
[24]; [33]
  Plant response rating, Lambsquarters: 0
